Source: the NIST ThermoML archive (doi:10.1021/acs.jced.8b00692)

Assay: xn = mol fraction of the nth substance listed
Details: 102 kPa, Liquid; for viscosity: Concentric cylinders viscometry; for speed of sound: Frequency=3 MHz, Single path-length method; for mass density: Vibrating tube method

CCCCCCCCCCCCC1CCCCC1 [dodecylcyclohexane] + CCCCCCCCCCCCCCCC
Details | mass density [kg/m3] | speed of sound [m/s] | viscosity [mPa·s]
293.15 K, x1 = 0.2002 | 783.66 | 1370.4 | 4.02
293.15 K, x1 = 0.4001 | 793.67 | 1384 | 4.72
293.15 K, x1 = 0.5001 | 798.59 | 1390.6 | 5.11
293.15 K, x1 = 0.6003 | 803.47 | 1396.7 | 5.49
293.15 K, x1 = 0.8001 | 812.98 | 1410.4 | 6.49
293.15 K, x1 = 1 | 822.31 | 1423.3 | 7.76
303.15 K, x1 = 0.2002 | 776.77 | 1333.2 | 3.17
303.15 K, x1 = 0.4001 | 786.84 | 1347 | 3.66
303.15 K, x1 = 0.5001 | 791.79 | 1353.7 | 3.95
303.15 K, x1 = 0.6003 | 796.69 | 1359.9 | 4.23
303.15 K, x1 = 0.8001 | 806.26 | 1373.4 | 4.93
303.15 K, x1 = 1 | 815.65 | 1386.3 | 5.81
313.15 K, x1 = 0.2002 | 769.91 | 1296.9 | 2.56
313.15 K, x1 = 0.4001 | 780.03 | 1310.8 | 2.92
313.15 K, x1 = 0.5001 | 785.01 | 1317.6 | 3.13
313.15 K, x1 = 0.6003 | 789.93 | 1323.8 | 3.34
313.15 K, x1 = 0.8001 | 799.57 | 1337.3 | 3.85
313.15 K, x1 = 1 | 809.01 | 1350.4 | 4.48
323.15 K, x1 = 0.2002 | 763.05 | 1261.2 | 2.1
323.15 K, x1 = 0.4001 | 773.23 | 1275.3 | 2.38
323.15 K, x1 = 0.5001 | 778.23 | 1282.1 | 2.54
323.15 K, x1 = 0.6003 | – | 1288.5 | 2.7
323.15 K, x1 = 0.8001 | – | 1302 | 3.09
323.15 K, x1 = 1 | – | 1315.2 | 3.55
